Source: paper PMC13608006 (Journal of medicinal chemistry, 2018)

How the values were obtained:
Details in all cases: SI50 = CC50/EC50
EV-A71 = assay: antiviral CPE assay, anti-EV-A71 in LLC cells; type: cell-based, enterovirus 71 (EV-A71)
CV-B3 (CVB3-H3) = type: cell-based, coxsackievirus B3
PV-1 = type: cell-based, poliovirus-1

SMILES | SI50 (EV-A71 in LLC cells) (EV-A71) | SI50 (CV-B3 in HeLa cells) (CV-B3 (CVB3-H3)) | SI50 (PV-1 in HeLa cells) (PV-1)
CC(C)n1ncc2c(C(=O)Nc3ccc(F)cc3)cc(-c3ccsc3)nc21 [JX030, N-(4-Fluorophenyl)-1-isopropyl-6-(thiophen-3-yl)-1H-pyrazolo[3,4-b]pyridine-4-carboxamide] | SI50: >142.9 | SI50: 19.2 | 
CC(C)n1ncc2c(C(=O)Nc3ccccc3S(N)(=O)=O)cc(-c3cccs3)nc21 [JX033, 1-Isopropyl-N-(2-sulfamoylphenyl)-6-(thiophen-2-yl)-1H-pyrazolo[3,4-b]pyridine-4-carboxamide] | SI50: 10.0 | SI50: 3.8 | 
CC(C)n1ncc2c(C(=O)Nc3ccc(F)cc3)cc(C3CC3)nc21 [JX038, 6-Cyclopropyl-N-(4-fluorophenyl)-1-isopropyl-1H-pyrazolo-[3,4-b]pyridine-4-carboxamide] | SI50: 3.9 | SI50: 3.0 | 
CC(C)n1ncc2c(C(=O)Nc3ccccn3)cc(-c3cccs3)nc21 [JX040, 1-Isopropyl-N-(pyridin-2-yl)-6-(thiophen-2-yl)-1H-pyrazolo-[3,4-b]pyridine-4-carboxamide] | SI50: >400.0 | SI50: >250.0 | 
CC(C)n1ncc2c(C(=O)Nc3ncccn3)cc(-c3cccs3)nc21 [JX041, 1-Isopropyl-N-(pyrimidin-2-yl)-6-(thiophen-2-yl)-1H-pyrazolo[3,4-b]pyridine-4-carboxamide] | SI50: 150.0 | SI50: 62.5 | 
CC(C)n1ncc2c(C(=O)Nc3ccncc3)cc(-c3cccs3)nc21 [JX042, 1-Isopropyl-N-(pyridin-4-yl)-6-(thiophen-2-yl)-1H-pyrazolo-[3,4-b]pyridine-4-carboxamide] | SI50: 15.8 | SI50: 10.0 | 
CC(C)n1ncc2c(C(=O)Nc3ccncn3)cc(-c3cccs3)nc21 [JX043, 1-Isopropyl-N-(pyrimidin-4-yl)-6-(thiophen-2-yl)-1H-pyrazolo[3,4-b]pyridine-4-carboxamide] | SI50: 100.0 | SI50: 33.3 | 
CC(C)n1ncc2c(C(=O)Nc3ccc(S(C)(=O)=O)cc3)cc(-c3cccs3)nc21 [JX047, 1-Isopropyl-N-(4-(methylsulfonyl)phenyl)-6-(thiophen-2-yl)-1H-pyrazolo[3,4-b]pyridine-4-carboxamide] | SI50: 100.0 | SI50: 200.0 | 
CC(C)n1ncc2c(C(=O)Nc3cccc(S(=O)(=O)N(C)C)c3)cc(-c3cccs3)nc21 [JX052, N-(3-(N,N-Dimethylsulfamoyl)phenyl)-1-isopropyl-6-(thiophen-2-yl)-1H-pyrazolo[3,4-b]pyridine-4-carboxamide] | SI50: >250.0 | SI50: 12.0 | 
CNS(=O)(=O)c1cccc(NC(=O)c2cc(-c3cccs3)nc3c2cnn3C(C)C)c1 [JX053, 1-Isopropyl-N-(3-(N-methylsulfamoyl)phenyl)-6-(thiophen-2-yl)-1H-pyrazolo[3,4-b]pyridine-4-carboxamide] | SI50: 35.7 | SI50: 24.0 | 
CC(C)n1ncc2c(C(=O)Nc3cccnc3)cc(-c3cccs3)nc21 [JX056, 1-Isopropyl-N-(pyridin-3-yl)-6-(thiophen-2-yl)-1H-pyrazolo-[3,4-b]pyridine-4-carboxamide] | SI50: >400.0 | SI50: 62.5 | SI50: 2.5
CC(C)n1ncc2c(C(=O)Nc3ccccn3)cc(-c3ccsc3)nc21 [JX057, 1-Isopropyl-N-(pyridin-2-yl)-6-(thiophen-3-yl)-1H-pyrazolo-[3,4-b]pyridine-4-carboxamide] | SI50: 31.3 | SI50: 15.0 | 
CC(C)n1ncc2c(C(=O)Nc3ncccn3)cc(-c3ccsc3)nc21 [JX058, 1-Isopropyl-N-(pyrimidin-2-yl)-6-(thiophen-3-yl)-1H-pyrazolo[3,4-b]pyridine-4-carboxamide] | SI50: 41.7 | SI50: 33.3 | 
CC(C)n1ncc2c(C(=O)Nc3ccncn3)cc(-c3ccsc3)nc21 [JX059, 1-Isopropyl-N-(pyrimidin-4-yl)-6-(thiophen-3-yl)-1H-pyrazolo[3,4-b]pyridine-4-carboxamide] | SI50: >250.0 | SI50: >166.7 | 
CC(C)n1ncc2c(C(=O)Nc3cccnc3)cc(-c3ccsc3)nc21 [JX060, 1-Isopropyl-N-(pyridin-3-yl)-6-(thiophen-3-yl)-1H-pyrazolo-[3,4-b]pyridine-4-carboxamide] | SI50: 15.4 | SI50: 30.0 | 
CC(C)n1ccc2c(C(=O)Nc3cccnc3)cc(-c3cccs3)nc21 [JX062, 1-Isopropyl-N-(pyridin-3-yl)-6-(thiophen-2-yl)-1H-pyrrolo-[2,3-b]pyridine-4-carboxamide] | SI50: 31.3 | SI50: 13.8 | 
CC(C)n1ncc2c(C(=O)Nc3cccc(C(N)=O)c3)cc(-c3cccs3)nc21 [JX064, N-(3-Carbamoylphenyl)-1-isopropyl-6-(thiophen-2-yl)-1H-pyrazolo[3,4-b]pyridine-4-carboxamide] | SI50: 31.3 | SI50: 25.7 | SI50: 2.9
CC(C)n1ncc2c(C(=O)Nc3cncnc3)cc(-c3cccs3)nc21 [JX066, 1-Isopropyl-N-(pyrimidin-5-yl)-6-(thiophen-2-yl)-1H-pyrazolo[3,4-b]pyridine-4-carboxamide] | SI50: 50.0 | SI50: 25.7 | SI50: 1.8
CC(C)n1ncc2c(C(=O)Nc3ccc(F)c(S(N)(=O)=O)c3)cc(-c3cccs3)nc21 [JX069, N-(4-Fluoro-3-sulfamoylphenyl)-1-isopropyl-6-(thiophen-2-yl)-1H-pyrazolo[3,4-b]pyridine-4-carboxamide] | SI50: 62.5 | SI50: >181.8 | 
CC(C)n1ncc2c(C(=O)Nc3ccccn3)cc(-c3ccccc3)nc21 [JX070, 1-Isopropyl-6-phenyl-N-(pyridin-2-yl)-1H-pyrazolo[3,4-b]-pyridine-4-carboxamide] | SI50: 17.9 | SI50: 11.8 | 
CC(C)n1ncc2c(C(=O)Nc3ccccn3)cc(C3CC3)nc21 [JX071, 6-Cyclopropyl-1-isopropyl-N-(pyridin-2-yl)-1H-pyrazolo[3,4-b]pyridine-4-carboxamide] | SI50: 5.3 | SI50: 5.3 | 
CC(C)n1ccc2c(C(=O)Nc3ccccn3)cc(-c3cccs3)nc21 [JX072, 1-Isopropyl-N-(pyridin-2-yl)-6-(thiophen-2-yl)-1H-pyrrolo-[2,3-b]pyridine-4-carboxamide] | SI50: >166.7 | SI50: 8.5 | 
CC(C)n1ncc2c(C(=O)Nc3ccc(F)cn3)cc(-c3cccs3)nc21 [JX075, N-(5-Fluoropyridin-2-yl)-1-isopropyl-6-(thiophen-2-yl)-1H-pyrazolo[3,4-b]pyridine-4-carboxamide] | SI50: >166.7 | SI50: 53.6 | 
